The values that follow come from PubChem BioAssay (NCI).

Test systems include HOP-92 NSCLC; P388 leukemia; DU-145 prostate; HS 578T breast; MDA-MB-231 breast; MDA-MB-435; MDA-N; PC-3 prostate; T-47D breast; RXF-631 renal.
Common to all, as to test: NCI tumour cell line growth inhibition, 48 h

Each structure is given as a SMILES string.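 Assay format: 96-well plates, 48-hour exposure. At the TGI there is no net growth.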

As to `C[C@H](N)C(=O)N[C@@H]1[C@H]2C(=C(O)C[C@@H](O)[C@@H]2O)C(=O)O[C@@H]1C`, the TGI with HOP-92 NSCLC and in the experiment on P388 leukemia was more than 100 µM throughout.
On to `C[C@H](CN1CC(=O)NC(=O)C1)N1CC(=O)NC(=O)C1`, for which the TGI with HOP-92 NSCLC is more than 100 µM.
`CCOC(=O)C1=NN(c2ccc(Cl)cc2)C2=CC(C)=NN(C)C(=S)N21`: the TGI with DU-145 prostate, in the experiment on HOP-92 NSCLC, in the experiment with HS 578T breast, with MDA-MB-231 breast, with MDA-MB-435 and with MDA-N was more than 100 µM in each case. Besides, the figures for the TGI in the experiment on PC-3 prostate and in the experiment with T-47D breast were more than 100 µM and 94.8 µM, respectively.
With `N/C(=N\N=C\c1cc2c(cc1Cl)OCO2)NO`, the values for the TGI with HOP-92 NSCLC and in the experiment on P388 leukemia were more than 95.1 µM and more than 91.9 µM, respectively.
The molecule `Nc1nn(CC(O)CO)c(=O)s1` (centres undefined) yielded a TGI in the experiment with RXF-631 renal of more than 100 µM.
